Source: patent publication EP3838286B1, “ANTIMICROBIAL PEPTIDE FROM POLISTES GALLICUS VENOM AND ITS ANALOGS” (Latoxan, priority 2019, dated 2021)
In brackets after ≈: the same amount, converted by molar mass. Like-named read-outs stand apart in the source and are kept apart here. Square brackets hold non-standard residues; d marks the D form. Peptide text beside a SMILES is read from it.

Tests used:
Pseudomonas aeruginosa = assay: Stability of the peptides to proteases and human serum (MIC of digested peptides); format: in vitro ADME; details: for MIC (µM) Serum4h: after 4 h at 37°C in human serum; for MIC (µM) Serum4h / MIC (µM) Chymotrypsin / MIC (µM) Pepsin / MIC (µM) Trypsin / MIC (µM) Serum24h / MIC (µM) Control: against Pseudomonas aeruginosa; for MIC (µM) Chymotrypsin: after 4 h at 37°C with chymotrypsin; for MIC (µM) Chymotrypsin / MIC (µM) Trypsin: pH 7; for MIC (µM) Pepsin: after 4 h at 37°C with pepsin, pH2; for MIC (µM) Trypsin: after 4 h at 37°C with trypsin; for MIC (µM) Serum24h: after 24 h at 37°C in human serum; for stability to proteases and human serum: pepsin, trypsin, chymotrypsin; for MIC (µM) Control: peptide incubated in PBS, not treated with proteases
Method: In order to evaluate the stability of the peptides to condition they will face in vivo, their resistance to proteases and human serum was evaluated (Oyama et al., 2017 Biofilms Microbiomes, Dec 1;3:33). Briefly, one volume of peptides (at 1 mM) was diluted in one volume of proteases (Pepsin, Trypsin, Chymotrypsin, Papain all from Sigma Aldrich and diluted at 2 mg/ml in HCl 10 mM pH2 for Pepsin, PBS pH 7 for Trypsin and Chymotrysin and PBS pH 6 for Papain) or human serum (Sigma Aldrich H4522). Peptides incubated in the same conditions in PBS were used as controls. After 4 h (for proteases) and 4 or 24 h (for human serum) of incubation at 37°C, PMSF was added to the reaction mixture at a final concentration of 100 µM to stop the digestion. MIC of the digested peptides were then determined as explained above.

[1] = Cytotoxicity assay (resazurin); format: cell-based; details: human
Method: Normal human cells used were BEAS-2B (ATCC CRL-9609), IMR-90 (ATCC CCL-186) and Human Umbilical Vein Endothelial Cells (HUVEC) (from Sigma-Aldrich) corresponding respectively to human normal lung epithelial, normal lung fibroblast cells and human normal endothelial cells. All cells except HUVEC cells were cultured in Dulbecco's modified essential medium (DMEM) supplemented with 10% fetal calf serum (FCS), 1% L-glutamine and 1% antibiotics (all from Invitrogen). HUVEC cells were cultured in specific endothelial media (from Sigma Aldrich). Cells were seeded onto […] maintained in a 5% CO2 incubator at 37 °C. Cells grown on 25 cm^2 flasks were detached using trypsin-EDTA solution (from Thermofisher), counted using Mallassez counting chamber and seeded into 96-well cell culture plates (Greiner bio-one) at approximately 10,000 cells per well. The cells were left to grow for 48-72 h at 37 °C in a 5% CO2 incubator until they reached confluence. Plates were then aspirated and increasing concentrations of peptides diluted in culture media were added to the cells for 48 h at 37 °C in a 5% CO2 incubator. At the end of the incubation, wells were emptied and cell viability was evaluated using Resazurin based in vitro toxicity assay kit (from Sigma-Aldrich) following manufacturer's instructions. Briefly, Resazurin stock solution was diluted 1:10 in sterile PBS containing calcium and magnesium (PBS, pH 7.4) and empty wells were filled with 100 µL of the diluted solution. After 4 h incubation at 37 °C, fluorescence intensity was measured using microplate reader (Synergy Mx, Biotek) with an excitation wavelength of 530 nm and an emission wavelength of 590 nm. The fluorescence values were normalized by the controls (buffer treated cells) and expressed as percent viability. The IC50 values of peptides on cell viability (i.e. the concentration of derivative causing a reduction of 50% of cell viability) were determined using GraphPad® Prism 7 software. t-Test and two way ANOVA analyses were used to address the significant differences between mean values with significance set at p < 0.05.

MiaPaCa-2 = assay: Antitumor / antiproliferative activity (resazurin); format: cell-based, human; details: pancreas cancer cells; 5,000 cells/well; 48 h; read-out: IC50 antiproliferative effect MiaPaCa-2
Method: (§1) Human cancer cell lines (Mia PaCa-2 (CRL-1420), PC-3 (CRL-1435), MDA-MB-231 (HTB-26)) and normal lung fibrobasts (BEAS-2B (ATCC CRL-9609) and IMR-90 (ATCC CCL-186)) were obtained from American Type Culture Collection (ATCC). HUVEC cells were obtained from Sigma Aldrich and were grown in defined all-in-one ready to use endothelial cell growth medium (Sigma Aldrich). Other cells were cultured in Dulbecco's modified Eagle's medium (DMEM, Gibco Life Technologies) supplemented with 10% heat-inactivated fetal calf serum (FCS, Lonza) at 37 °C in an incubator containing 5% CO2. Cells were sub-cultured in new media every 3-4 days. Antiproliferative / antitumor effects of the peptides were measured as previously described (Borie et al., Eur J Med Chem. 2018;148:306-313). Briefly, cells were detached from growing flask using trypsin, cells were counted and seeded in 96 well-plates in the growth media at an initial cell density of 5000 cells/well. Cells were left for 4 h to attach to the wells. Cells were then treated with increasing concentrations of peptides diluted in culture media. After 48 h incubation at 37 °C in a 5% CO2 incubator, wells were emptied and cell number was evaluated using Resazurin based in vitro toxicity assay kit (from Sigma-Aldrich) following manufacturer's instructions. Briefly, Resazurin stock solution was diluted 1:10 in sterile PBS containing calcium and magnesium (PBS, pH 7.4) and empty wells were filled with 100 µL of the diluted solution. After 4 h incubation at 37 °C, fluorescence intensity was measured using microplate reader (Synergy Mx, Biotek) with an excitation wavelength of 530 nm and an emission wavelength of 590 nm. The fluorescence values were normalized by the controls (buffer treated cells) and expressed as per-cent viability. The IC50 values of peptides on cell division / proliferation (i.e. the concentration of derivative causing a reduction of 50% of cell division) were determined using GraphPad ® Prism 7 software. t-Test and two way ANOVA analyses were used to address the significant differences between mean values with significance set at p < 0.05.

MDA-MB-231 = assay: Antitumor / antiproliferative activity (resazurin); format: cell-based, human; details: breast cancer cells; 5,000 cells/well; 48 h; read-out: IC50 antiproliferative effect MDA-MB-231
Method: as §1

PC-3 = assay: Antitumor / antiproliferative activity (resazurin); format: cell-based, human; details: prostate cancer cells; 5,000 cells/well; 48 h; read-out: IC50 antiproliferative effect PC-3
Method: as §1

M. smegmatis = details: 72 h
[2] = test system: B. subtilis (Nisin-resistant)
[3] = BEAS-2B normal lung epithelial cells, normal lung epithelium, read-out: Cytotoxicity IC50 (µM) BEAS
[4] = HUVEC (human umbilical vein endothelial cells), normal endothelium, read-out: Cytotoxicity IC50 (µM) HUVEC
[5] = IMR-90 normal lung fibroblast cells, read-out: Cytotoxicity IC50 (µM) IMR90

Structure (SMILES): CC[C@@H](C)[C@@H](N)C(=O)N[C@H](CC(C)C)C(=O)N[C@H](CCCCN)C(=O)N[C@H](C)C(=O)N[C@@H](C(=O)N[C@H](CCCCN)C(=O)N[C@H](CCCCN)C(=O)N[C@H](CC(C)C)C(=O)N[C@H](CC(C)C)C(=O)N[C@H](CCCCN)C(N)=O)[C@H](C)CC [(i1k10*) enantio, ilkaikkllk] (H-[dI][dL][dK][dA][dI][dK][dK][dL][dL][dK]-NH2)
- MBC (µM) V. alginolyticus (V. alginolyticus): 1.5 µM (≈ 1.75 µg/mL)
- MIC (µM) V. alginolyticus (V. alginolyticus): 0.78 to 1.56 µM
- MBC (µM) C. rodentium (C. rodentium): 50 µM (≈ 58.3 µg/mL)
- MIC (µM) C. rodentium (C. rodentium): 50 µM (≈ 58.3 µg/mL)
- MBC (µM) A. gandavensis (A. gandavensis): 1.5 µM (≈ 1.75 µg/mL)
- MIC (µM) A. gandavensis (A. gandavensis): 1.5 µM (≈ 1.75 µg/mL)
- MBC (µM) P. aeruginosa (P. aeruginosa): 3.12 µM (≈ 3.64 µg/mL)
- MIC (µM) P. aeruginosa (P. aeruginosa): 3.125 µM (≈ 3.65 µg/mL)
- MIC PA (P. aeruginosa): 3.125 µM (≈ 3.65 µg/mL)
- MBC (µM) P. aeruginosa 01 (P. aeruginosa 01): 50 µM (≈ 58.3 µg/mL)
- MIC (µM) P. aeruginosa 01 (P. aeruginosa 01): 12.5 µM (≈ 14.6 µg/mL)
- MBC (µM) C. farmeri (C. farmeri): 50 µM (≈ 58.3 µg/mL)
- MIC (µM) C. farmeri (C. farmeri): 12.5 µM (≈ 14.6 µg/mL)
- MIC (µM) Serum4h (Pseudomonas aeruginosa): 1.5 µM
- MIC (µM) Chymotrypsin (Pseudomonas aeruginosa): 1.5 µM
- MIC (µM) Pepsin (Pseudomonas aeruginosa): 1.5 µM
- MIC (µM) Trypsin (Pseudomonas aeruginosa): 1.5 µM
- MIC (µM) Serum24h (Pseudomonas aeruginosa): 0.75 µM
- stability to proteases and human serum (Pseudomonas aeruginosa): not affected
- MIC (µM) Control (Pseudomonas aeruginosa): 1.5 µM
- CC50 at 48 h [1, 3]: 726 µM
- CC50 at 48 h [1, 4]: 683 µM
- CC50 at 48 h [1, 5]: 365 µM
- MBC (µM) L. lactis (L. lactis): 3.12 µM (≈ 3.64 µg/mL)
- MIC (µM) L. lactis (L. lactis): 1.5 µM (≈ 1.75 µg/mL)
- MBC (µM) H. pylori (H. pylori): 50 µM (≈ 58.3 µg/mL)
- MIC (µM) H. pylori (H. pylori): 50 µM (≈ 58.3 µg/mL)
- IC50 (MiaPaCa-2): 13.4 µM
- IC50 (MDA-MB-231): 61.7 µM
- IC50 (PC-3): 39.3 µM
- MIC (µM) M. smegmatis (M. smegmatis): 6.25 µM (≈ 7.29 µg/mL)
- MBC (µM) S. enterica (S. enterica): 25 µM (≈ 29.2 µg/mL)
- MIC (µM) S. enterica (S. enterica): 50 µM (≈ 58.3 µg/mL)
- MBC (µM) P. aeruginosa FQR (P. aeruginosa FQR): 100 µM (≈ 117 µg/mL)
- MIC (µM) P. aeruginosa FQR (P. aeruginosa FQR): 12.5 to 25 µM
- MBC (µM) B. subtilis (Nisin-resistant) [2]: 12.5 µM (≈ 14.6 µg/mL)
- MIC (µM) B. subtilis (Nisin-resistant) [2]: 12.5 µM (≈ 14.6 µg/mL)
- MBC (µM) S. flexneri (S. flexneri): 12.5 µM (≈ 14.6 µg/mL)
- MIC (µM) S. flexneri (S. flexneri): 12.5 µM (≈ 14.6 µg/mL)
- MBC (µM) E. coli EHEC K88 (E. coli EHEC K88): 50 µM (≈ 58.3 µg/mL)
- MIC (µM) E. coli EHEC K88 (E. coli EHEC K88): 50 µM (≈ 58.3 µg/mL)

Structure (SMILES): CC[C@@H](C)[C@@H](N)C(=O)N[C@H](CC(C)C)C(=O)N[C@H](CCCCN)C(=O)N[C@H](C)C(=O)N[C@@H](C(=O)N[C@H](CCCCN)C(=O)N[C@H](CCCCN)C(=O)N[C@H](CC(C)C)C(=O)N[C@H](CC(C)C)C(=O)N[C@H](CCCCN)C(=O)N[C@H](CC(N)=O)C(N)=O)[C@H](C)CC [LTX-D (gallicune-1), ilkaikkllkn] (H-[dI][dL][dK][dA][dI][dK][dK][dL][dL][dK][dN]-NH2)
- MBC (µM) V. alginolyticus (V. alginolyticus): 0.78 µM (≈ 0.999 µg/mL)
- MIC (µM) V. alginolyticus (V. alginolyticus): 0.78 µM (≈ 0.999 µg/mL)
- MBC (µM) C. rodentium (C. rodentium): 25 µM (≈ 32 µg/mL)
- MIC (µM) C. rodentium (C. rodentium): 12.5 µM (≈ 16 µg/mL)
- MBC (µM) A. gandavensis (A. gandavensis): 1.5 µM (≈ 1.92 µg/mL)
- MIC (µM) A. gandavensis (A. gandavensis): 1.5 µM (≈ 1.92 µg/mL)
- MBC (µM) P. aeruginosa (P. aeruginosa): 1.5 µM (≈ 1.92 µg/mL)
- MIC (µM) P. aeruginosa (P. aeruginosa): 1.5 µM (≈ 1.92 µg/mL)
- MIC PA (P. aeruginosa): 1.5 µM (≈ 1.92 µg/mL)
- MBC (µM) P. aeruginosa 01 (P. aeruginosa 01): 25 µM (≈ 32 µg/mL)
- MIC (µM) P. aeruginosa 01 (P. aeruginosa 01): 6.25 µM (≈ 8 µg/mL)
- MBC (µM) C. farmeri (C. farmeri): 6.25 µM (≈ 8 µg/mL)
- MIC (µM) C. farmeri (C. farmeri): 6.25 µM (≈ 8 µg/mL)
- MIC (µM) Serum4h (Pseudomonas aeruginosa): 25 µM
- MIC (µM) Chymotrypsin (Pseudomonas aeruginosa): 25 µM
- MIC (µM) Pepsin (Pseudomonas aeruginosa): 25 µM
- MIC (µM) Trypsin (Pseudomonas aeruginosa): 25 µM
- MIC (µM) Serum24h (Pseudomonas aeruginosa): 12.5 µM
- stability to proteases and human serum (Pseudomonas aeruginosa): not affected
- MIC (µM) Control (Pseudomonas aeruginosa): 25 µM
- CC50 at 48 h [1, 3]: 843 µM
- CC50 at 48 h [1, 4]: 869 µM
- CC50 at 48 h [1, 5]: 653 µM
- MBC (µM) L. lactis (L. lactis): 1.5 µM (≈ 1.92 µg/mL)
- MIC (µM) L. lactis (L. lactis): 1.5 µM (≈ 1.92 µg/mL)
- MBC (µM) H. pylori (H. pylori): 50 µM (≈ 64 µg/mL)
- MIC (µM) H. pylori (H. pylori): 50 µM (≈ 64 µg/mL)
- IC50 (MiaPaCa-2): 6.51 µM
- IC50 (MDA-MB-231): 56.2 µM
- IC50 (PC-3): 33.7 µM
- MIC (µM) M. smegmatis (M. smegmatis): 25 µM (≈ 32 µg/mL)
- MBC (µM) S. enterica (S. enterica): 25 µM (≈ 32 µg/mL)
- MIC (µM) S. enterica (S. enterica): 25 µM (≈ 32 µg/mL)
- MBC (µM) P. aeruginosa FQR (P. aeruginosa FQR): 12.5 µM (≈ 16 µg/mL)
- MIC (µM) P. aeruginosa FQR (P. aeruginosa FQR): 6.25 to 12.5 µM
- MIC (µM) E. coli (E. coli): 6.25 µM (≈ 8 µg/mL)
- MBC (µM) B. subtilis (Nisin-resistant) [2]: 6.25 µM (≈ 8 µg/mL)
- MIC (µM) B. subtilis (Nisin-resistant) [2]: 6.25 µM (≈ 8 µg/mL)
- MBC (µM) S. flexneri (S. flexneri): 12.5 µM (≈ 16 µg/mL)
- MIC (µM) S. flexneri (S. flexneri): 12.5 µM (≈ 16 µg/mL)
- MBC (µM) E. coli EHEC K88 (E. coli EHEC K88): 50 µM (≈ 64 µg/mL)
- MIC (µM) E. coli EHEC K88 (E. coli EHEC K88): 50 µM (≈ 64 µg/mL)
